The values below come from patent US7135466B2 (Kirin Beer Kabushiki Kaisha, priority 1999, dated 2006).

One experiment deals with T1, PDGF-Ra (Homo sapiens, UniProt P16234).
T1 construct: host or cells: G-292 human osteosarcoma cells
The experiment in a line: Inhibitory activity against PDGF-Ra phosphorylation by PDGF-AA stimulation using G292. The following applies: for IC50: > means inhibition at indicated concentration not more than 50%, < and << not less than 50%, read-out: PDGF (E) IC50; for inhibition at 0.1 µM: G292, figure within parentheses in >100( ), at 100 nM, read-out: PDGF (E) inhibition (%) at 100 nM. Type of experiment: cell-based. The procedure, abridged: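 In G-292 osteosarcoma cells kept overnight in 0.1% FBS, compound exposure (1 hr, 37 °C) preceded PDGF-AA stimulation at 50 ng/ml for 5 min; receptor phosphotyrosine was then detected by PY-20 capture ELISA.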

For a further experiment, the target named is T2, c-kit (Homo sapiens, UniProt P10721).
T2 construct: MO7e (human megakaryocytic leukemia cell line) which had been arrested for 20 hr; endogenous in cells; host or cells: MO7e human megakaryocytic leukemia cell line
T2 sequence (P10721 26-976): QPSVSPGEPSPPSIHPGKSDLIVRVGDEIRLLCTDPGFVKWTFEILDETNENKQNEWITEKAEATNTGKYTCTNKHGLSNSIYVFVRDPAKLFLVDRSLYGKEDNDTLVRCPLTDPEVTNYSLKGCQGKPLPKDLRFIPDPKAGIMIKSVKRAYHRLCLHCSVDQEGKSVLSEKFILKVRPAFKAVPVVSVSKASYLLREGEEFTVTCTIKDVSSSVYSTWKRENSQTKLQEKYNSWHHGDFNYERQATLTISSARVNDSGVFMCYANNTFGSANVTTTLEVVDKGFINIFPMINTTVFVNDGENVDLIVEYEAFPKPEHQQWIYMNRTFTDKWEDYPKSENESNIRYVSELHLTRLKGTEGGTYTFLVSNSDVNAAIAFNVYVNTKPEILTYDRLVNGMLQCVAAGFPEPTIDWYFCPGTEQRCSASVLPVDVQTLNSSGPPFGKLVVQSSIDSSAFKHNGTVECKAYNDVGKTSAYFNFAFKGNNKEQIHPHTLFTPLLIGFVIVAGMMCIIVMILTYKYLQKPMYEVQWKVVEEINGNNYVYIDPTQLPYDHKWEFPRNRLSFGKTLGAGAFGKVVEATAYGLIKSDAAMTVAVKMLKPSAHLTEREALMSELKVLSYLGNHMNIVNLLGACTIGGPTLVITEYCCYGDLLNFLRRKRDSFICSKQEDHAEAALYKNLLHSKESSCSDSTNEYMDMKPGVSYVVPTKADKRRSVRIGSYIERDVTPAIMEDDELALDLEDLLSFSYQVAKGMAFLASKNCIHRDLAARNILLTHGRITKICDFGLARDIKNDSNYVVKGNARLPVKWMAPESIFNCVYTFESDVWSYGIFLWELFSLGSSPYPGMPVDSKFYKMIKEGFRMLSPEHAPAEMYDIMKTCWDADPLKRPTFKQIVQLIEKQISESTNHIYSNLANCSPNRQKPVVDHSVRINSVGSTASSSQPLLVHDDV
The experiment in a line: Inhibitory activity against c-kit autophosphorylation (MO7e cells, h-SCF). Format: cell-based. The following applies: for IC50: MO7e cells, 50 ng/ml h-SCF, read-out: c-kit IC50; for inhibition at 1 µM: Mo7e, figure within parentheses in −( ) or >1000( ), at 1000 nM. The procedure, abridged:
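Phospho-c-kit ELISA: plate-bound PY-20 anti-phosphotyrosine captures lysate, anti-c-kit plus peroxidase-labelled secondary antibody detect, read at 450 nm. Lysates come from 20 hr-arrested MO7e cells given compound for 1 hr before a 5 min 50 ng/ml h-SCF stimulus.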

T1 sequence (P16234 24-1089): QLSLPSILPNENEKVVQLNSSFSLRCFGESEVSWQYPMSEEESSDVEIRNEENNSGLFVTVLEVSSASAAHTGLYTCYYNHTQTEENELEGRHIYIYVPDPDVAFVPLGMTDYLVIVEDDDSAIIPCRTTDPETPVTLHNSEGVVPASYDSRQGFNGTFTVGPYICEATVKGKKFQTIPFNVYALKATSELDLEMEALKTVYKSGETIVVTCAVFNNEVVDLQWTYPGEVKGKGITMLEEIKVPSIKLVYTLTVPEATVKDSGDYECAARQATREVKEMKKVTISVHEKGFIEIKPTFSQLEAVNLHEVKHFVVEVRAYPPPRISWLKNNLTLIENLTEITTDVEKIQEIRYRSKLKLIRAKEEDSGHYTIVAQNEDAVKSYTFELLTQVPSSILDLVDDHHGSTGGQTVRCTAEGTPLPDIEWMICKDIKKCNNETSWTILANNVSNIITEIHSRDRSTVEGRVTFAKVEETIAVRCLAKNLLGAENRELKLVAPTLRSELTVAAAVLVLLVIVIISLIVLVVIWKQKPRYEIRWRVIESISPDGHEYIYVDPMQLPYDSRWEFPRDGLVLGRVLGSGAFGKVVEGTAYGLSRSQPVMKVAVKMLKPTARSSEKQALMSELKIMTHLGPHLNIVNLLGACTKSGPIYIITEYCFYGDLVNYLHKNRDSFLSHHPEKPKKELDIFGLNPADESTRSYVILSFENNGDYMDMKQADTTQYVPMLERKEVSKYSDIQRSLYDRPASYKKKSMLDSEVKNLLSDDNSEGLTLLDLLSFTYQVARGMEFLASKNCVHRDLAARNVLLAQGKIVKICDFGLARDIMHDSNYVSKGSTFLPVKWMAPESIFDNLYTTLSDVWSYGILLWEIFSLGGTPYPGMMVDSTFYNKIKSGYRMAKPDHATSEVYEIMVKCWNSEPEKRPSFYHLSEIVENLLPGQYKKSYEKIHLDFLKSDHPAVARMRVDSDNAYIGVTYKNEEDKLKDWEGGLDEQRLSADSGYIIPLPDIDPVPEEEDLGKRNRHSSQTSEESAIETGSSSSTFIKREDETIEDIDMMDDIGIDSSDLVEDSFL

The term IC50 denotes the point on the concentration scale where inhibition reaches its midpoint. Take `COc1cc2ncnc(Oc3ccc(NC(=O)NCCN4CCCC4)c([N+](=O)[O-])c3)c2cc1OC` [Example 653, N-{4-[(6,7-Dimethoxy-4-quinazolinyl)oxy]-2-nitrophenyl}-N′-(2-tetrahydro-1H-1-pyrrolylethyl)urea]: the figures for the IC50 at PDGF-Ra and at c-kit were 23 nM and 581 nM, respectively.

As to `COc1cc2nccc(Oc3ccc(NC(=O)NCCN(C(C)C)C(C)C)cc3)c2cc1OC` [Example 654, N-[2-(Diisopropylamino)ethyl]-N′-{4-[(6,7-dimethoxy-4-quinolyl)oxy]phenyl}urea], the IC50 on PDGF-Ra stood at 19 nM; on c-kit, 698 nM.

Broadly, the inhibition is the drop in the measured response relative to a control, in per cent. As for `COc1cc2nccc(Oc3ccc(NC(=O)NCCN(C(C)C)C(C)C)c(C)c3C)c2cc1OC` [Example 655, N-[2-(Diisopropylamino)ethyl]-N′-{4-[(6,7-dimethoxy-4-quinolyl)oxy]-2,3-dimethylphenyl}urea], the IC50 at PDGF-Ra was 43 nM. Also, at c-kit, the inhibition at 1 µM amounted to 43%.

In the case of `COc1cc2ncnc(Oc3ccc(NC(=O)NCCN(C(C)C)C(C)C)cc3)c2cc1OC` [Example 656, N-[2-(Diisopropylamino)ethyl]-N′-{4-[(6,7-dimethoxy-4-quinazolinyl)oxy]phenyl}urea], the IC50 at PDGF-Ra was determined as 19 nM. Further, the inhibition at 1 µM on c-kit was 32%.

In the case of `COc1cc2ncnc(Oc3ccc(NC(=O)NCCN(C(C)C)C(C)C)c(Cl)c3)c2cc1OC` [Example 657, N-{2-Chloro-4-[(6,7-dimethoxy-4-quinazolinyl)oxy]phenyl}-N′-[2-(diisopropylamino)ethyl]urea], on PDGF-Ra, the half-maximal inhibitory concentration (IC50) was 40 nM. Besides, the inhibition at 1 µM on c-kit was 27%.

Regarding `COc1cc2nccc(Oc3ccc(NC(=O)NCCN(C(C)C)C(C)C)c([N+](=O)[O-])c3)c2cc1OC` [Example 658, N-[2-(Diisopropylamino)ethyl]-N′-{4-[(6,7-dimethoxy-4-quinolyl)oxy]-2-nitrophenyl}urea], the IC50 at PDGF-Ra amounted to 19 nM; on c-kit, 389 nM.

As for `COc1cc(Oc2ncnc3cc(OC)c(OC)cc23)ccc1NC(=O)NCCN(C(C)C)C(C)C` [Example 660, N-[2-(Diisopropylamino)ethyl]-N′-{4-[(6,7-dimethoxy-4-quinazolinyl)oxy]-2-methoxyphenyl}urea], the values for the IC50 on PDGF-Ra and at c-kit were 25 nM and 835 nM, respectively.

`CCN(CCNC(=O)Nc1ccc(Oc2ccnc3cc(OC)c(OC)cc23)cc1)c1cccc(C)c1` [Example 661, N-{4-[(6,7-Dimethoxy-4-quinolyl)oxy]phenyl}-N′-[2-(ethyl-3-methylanilino)ethyl]urea]: the results for the IC50 at PDGF-Ra and on c-kit were less than 10 nM and 75 nM, respectively.

Consider `CCN(CCNC(=O)Nc1cc(C)c(Oc2ccnc3cc(OC)c(OC)cc23)cc1C)c1cccc(C)c1` [Example 662, N-{4-[(6,7-Dimethoxy-4-quinolyl)oxy]-2,5-dimethylphenyl}-N′-[2-(ethyl-3-methylanilino)ethyl]urea], for which the figures for the IC50 at PDGF-Ra and at c-kit were 23 nM and 296 nM, respectively.

With `CCN(CCNC(=O)Nc1ccc(Oc2ccnc3cc(OC)c(OC)cc23)c(C)c1C)c1cccc(C)c1` [Example 663, N-{4-[(6,7-Dimethoxy-4-quinolyl)oxy]-2,3-dimethylphenyl}-N′-[2-(ethyl-3-methylanilino)ethyl]urea], the IC50 is less than 10 nM at PDGF-Ra and 202 nM at c-kit.

On to `CCN(CCNC(=O)Nc1ccc(Oc2ncnc3cc(OC)c(OC)cc23)cc1)c1cccc(C)c1` [Example 664, N-{4-[(6,7-Dimethoxy-4-quinazolinyl)oxy]phenyl}-N′-[2-(ethyl-3-methylanilino)ethyl]urea], for which the IC50 is less than 10 nM on PDGF-Ra and 97 nM at c-kit.

Consider `CCN(CCNC(=O)Nc1ccc(Oc2ncnc3cc(OC)c(OC)cc23)cc1Cl)c1cccc(C)c1` [Example 665, N-{2-Chloro-4-[(6,7-dimethoxy-4-quinazolinyl)oxy]phenyl}-N′-[2-(ethyl-3-methylanilino)ethyl]urea], for which the IC50 at PDGF-Ra stood at 11 nM; on c-kit, 122 nM.

Turning to `CCN(CCNC(=O)Nc1ccc(Oc2ccnc3cc(OC)c(OC)cc23)cc1[N+](=O)[O-])c1cccc(C)c1` [Example 666, N-{4-[(6,7-Dimethoxy-4-quinolyl)oxy]-2-nitrophenyl}-N′-[2-(ethyl-3-methylanilino)ethyl]urea], the IC50 stood at 10 nM on PDGF-Ra and 134 nM at c-kit.

For `CCN(CCNC(=O)Nc1ccc(Oc2ncnc3cc(OC)c(OC)cc23)cc1[N+](=O)[O-])c1cccc(C)c1` [Example 667, N-{4-[(6,7-Dimethoxy-4-quinazolinyl)oxy]-2-nitrophenyl}-N′-[2-(ethyl-3-methylanilino)ethyl]urea], the IC50 is less than 10 nM on PDGF-Ra and 100 nM at c-kit.

Turning to `CCN(CCNC(=O)Nc1ccc(Oc2ncnc3cc(OC)c(OC)cc23)cc1OC)c1cccc(C)c1` [Example 668, N-{4-[(6,7-Dimethoxy-4-quinazolinyl)oxy]-2-methoxyphenyl}-N′-[2-(ethyl-3-methylanilino)ethyl]urea], the IC50 at PDGF-Ra was less than 10 nM; at c-kit, 144 nM.

Take `CCN(CCNC(=O)Nc1ccc(Oc2ccnc3cc(OC)c(OC)cc23)cc1Cl)c1cccc(C)c1` [Example 669, N-{2-Chloro-4-[(6,7-dimethoxy-4-quinolyl)oxy]phenyl}-N′-[2-(ethyl-3-methylanilino)ethyl]urea]: the values for the IC50 on PDGF-Ra and on c-kit were 23 nM and 134 nM, respectively.

With `CCN(CCNC(=O)Nc1ccc(Oc2ccnc3cc(OC)c(OC)cc23)cc1OC)c1cccc(C)c1` [Example 670, N-{4-[(6,7-Dimethoxy-4-quinolyl)oxy]-2-methoxyphenyl}-N′-[2-(ethyl-3-methylanilino)ethyl]urea], the figures for the IC50 at PDGF-Ra and at c-kit were 15 nM and 82 nM, respectively.

Take `COc1cc2nccc(Oc3cc(C)c(NC(=O)NCCN(C(C)C)C(C)C)cc3C)c2cc1OC` [Example 671, N-[2-(Diisopropylamino)ethyl]-N′-{4-[(6,7-dimethoxy-4-quinolyl)oxy]-2,5-dimethylphenyl}urea]: on PDGF-Ra, the IC50 was determined as 64 nM. Further, at c-kit, the inhibition at 1 µM came out at 22%.

For the molecule `COc1cc(Oc2ccnc3cc(OC)c(OC)cc23)ccc1NC(=O)NCCN(C(C)C)C(C)C` [Example 672, N-[2-(Diisopropylamino)ethyl]-N′-{4-[(6,7-dimethoxy-4-quinolyl)oxy]-2-methoxyphenyl}urea], the IC50 at PDGF-Ra amounted to 53 nM. Besides, the inhibition at 1 µM at c-kit amounted to 9%.

As for `COc1cc2nccc(Oc3ccc(NC(=O)NCCN4CCCCC4)cc3)c2cc1OC` [Example 673, N-{4-[(6,7-Dimethoxy-4-quinolyl)oxy]phenyl}-N′-(2-piperidinoethyl)urea], the IC50 worked out at 15 nM at PDGF-Ra and 426 nM on c-kit.

For `COc1cc2nccc(Oc3cc(C)c(NC(=O)NCCN4CCCCC4)cc3C)c2cc1OC` [Example 674, N-{4-[(6,7-Dimethoxy-4-quinolyl)oxy]-2,5-dimethylphenyl}-N′-(2-piperidinoethyl)urea], the figures for the IC50 on PDGF-Ra and at c-kit were more than 100 nM and 854 nM, respectively. Besides, the inhibition at 0.1 µM at PDGF-Ra came to 43%.

Take `COc1cc2nccc(Oc3ccc(NC(=O)NCCN4CCCCC4)c(C)c3C)c2cc1OC` [Example 675, N-{4-[(6,7-Dimethoxy-4-quinolyl)oxy]-2,3-dimethylphenyl}-N′-(2-piperidinoethyl)urea]: the IC50 at PDGF-Ra was 46 nM; on c-kit, 442 nM.

Take `COc1cc2ncnc(Oc3ccc(NC(=O)NCCN4CCCCC4)cc3)c2cc1OC` [Example 676, N-{4-[(6,7-Dimethoxy-4-quinazolinyl)oxy]phenyl}-N′-(2-piperidinoethyl)urea]: the IC50 on PDGF-Ra amounted to 26 nM; on c-kit, 632 nM.

Turning to `COc1cc2ncnc(Oc3ccc(NC(=O)NCCN4CCCCC4)c(Cl)c3)c2cc1OC` [Example 677, N-{2-Chloro-4-[(6,7-dimethoxy-4-quinazolinyl)oxy]phenyl}-N′-(2-piperidinoethyl)urea], the IC50 was 47 nM at PDGF-Ra and 730 nM at c-kit.

As to `COc1cc2nccc(Oc3ccc(NC(=O)NCCN4CCCCC4)c([N+](=O)[O-])c3)c2cc1OC` [Example 678, N-{4-[(6,7-Dimethoxy-4-quinolyl)oxy]-2-nitrophenyl}-N′-(2-piperidinoethyl)urea], the IC50 at PDGF-Ra was less than 10 nM; at c-kit it was 164 nM.

Regarding `COc1cc(Oc2ncnc3cc(OC)c(OC)cc23)ccc1NC(=O)NCCN1CCCCC1` [Example 680, N-{4-[(6,7-Dimethoxy-4-quinazolinyl)oxy]-2-methoxyphenyl}-N′-(2-piperidinoethyl)urea], the IC50 on PDGF-Ra is 35 nM; on c-kit it was 570 nM.

Take `CCCCN(CCCC)CCNC(=O)Nc1ccc(Oc2ccnc3cc(OC)c(OC)cc23)cc1` [Example 682, N-[2-(Dibutylamino)ethyl]-N′-{4-[(6,7-dimethoxy-4-quinolyl)oxy]phenyl}urea]: at PDGF-Ra, the IC50 is more than 100 nM and the inhibition at 0.1 µM is 30%. For the same molecule, on c-kit, the inhibition at 1 µM came to 32%.

Regarding `CCCCN(CCCC)CCNC(=O)Nc1cc(C)c(Oc2ccnc3cc(OC)c(OC)cc23)cc1C` [Example 683, N-[2-(Dibutylamino)ethyl]-N′-{4-[(6,7-dimethoxy-4-quinolyl)oxy]-2,5-dimethylphenyl}urea], at PDGF-Ra, the IC50 was more than 100 nM and the inhibition at 0.1 µM stood at 40%. The inhibition at 1 µM at c-kit amounted to 26%.

For `CCCCN(CCCC)CCNC(=O)Nc1ccc(Oc2ccnc3cc(OC)c(OC)cc23)c(C)c1C` [Example 684, N-[2-(Dibutylamino)ethyl]-N′-{4-[(6,7-dimethoxy-4-quinolyl)oxy]-2,3-dimethylphenyl}urea], the IC50 amounted to 52 nM at PDGF-Ra and 549 nM on c-kit.
